Laboratory results published in patent US20130274338A1, “PHARMACEUTICAL COMPOSITIONS COMPRISING DGLA, 15-OHEPA, AND/OR 15-HETRE AND METHODS OF REDUCING SEBUM PRODUCTION USING SAME” (priority 2012, published 2013).

Test system: P. acnes
Assay: Agar dilution method, growth of P. acnes and MIC, combinations with a fatty acid spike
Type: cell-based, Propionibacterium acnes
Set-up: key to Growth Index Plate 1 / Growth Index Plate 2 / Growth Index Plate 3 / Growth Index Avg: +++: confluent growth (comparable to control); ++: less confluent growth; +: marked reduction in growth to multiple tiny, single colonies; −: no growth present
Method: Several compounds including fatty acids such as DGLA, 15-OHEPA, and 15-HETrE were tested to determine their capacity to inhibit the growth of P. acnes. In an exemplary method, an agar dilution method was used to determine the minimum inhibitory concentration (MIC) of each tested compound. Briefly, the agar dilution method involved preparing a series of concentrations of each compound (e.g., nicotinamide, benzoyl peroxide, adapalene, metronidazole, DGLA, 15-OHEPA, and 15-HETrE) in a Reinforced Clostridial Agar (RCA) media that facilitates growth of P. acnes under anaerobic conditions. An inoculum of P. acnes was prepared by incubation of P. acnes for approximately seven days at 35-37° C. to achieve a ≧1.0 OD600 inoculum of P. acnes in RCM broth. A portion of this inoculum was then added to the surface of each plate as a 10 μL spot and incubated at 35-37° C. for 72 hours or more. Growth of P. acnes was then observed and compared to control plates in which no compound has been added, and positive inhibition plates prepared with erythromycin. […] The growth of P. acnes in the presence of nicotinamide, benzoyl peroxide, adapalene, metronidazole, DGLA, 15-OHEPA, and 15-HETrE was determined with varying concentrations of the compound (see, Table 2). Next, the MIC was determined as the concentration at which a marked reduction (+) occurs in the appearance of growth on the test plate (as per Clinical and Laboratory Standards Institute M11-A7).
The compounds tested singly in Example 1 were tested in combination with one another to determine the capacity of the combination to inhibit the growth of P. acnes. In an exemplary method, the MIC was determined for each of the combination as described in Example 1. Briefly, test combinations included DGLA with nicotinamide, benzoyl peroxide, adapalene, or metronidazole; 15-HETrE with nicotinamide, benzoyl peroxide, adapalene, or metronidazole; and 15-OHEPA with nicotinamide, benzoyl peroxide, adapalene, or metronidazole. The tables below show the growth of P. acnes in the presence of 0.4 or 1.0 mg/mL DGLA with varying concentrations of nicotinamide, benzoyl peroxide, adapalene, or metronidazole (Table 3); the growth of P. acnes in the presence of 0.01 or 0.05 mg/mL 15-HETrE with varying concentrations of nicotinamide, benzoyl peroxide, adapalene, or metronidazole (Table 5); and the growth of P. acnes in the presence of 0.5 or 0.1 mg/mL 15-OHEPA with varying concentrations of nicotinamide, benzoyl peroxide, adapalene, or metronidazole (Table 7).

[1] = compound at 0.2 mg/mL + 0.01 mg/mL 15-HETrE
[2] = compound at 0.2 mg/mL + 0.05 mg/mL 15-HETrE
[3] = compound at 0.2 mg/mL + 0.05 mg/mL 15-OHEPA
[4] = compound at 0.2 mg/mL + 0.1 mg/mL 15-OHEPA
[5] = compound at 0.2 mg/mL + 0.4 mg/mL dGLA
[6] = compound at 0.2 mg/mL + 1.0 mg/mL dGLA
[7] = compound at 0.4 mg/mL + 0.01 mg/mL 15-HETrE
[8] = compound at 0.4 mg/mL + 0.05 mg/mL 15-HETrE
[9] = compound at 0.4 mg/mL + 0.05 mg/mL 15-OHEPA
[10] = compound at 0.4 mg/mL + 0.1 mg/mL 15-OHEPA
[11] = compound at 0.4 mg/mL + 0.4 mg/mL dGLA
[12] = compound at 0.4 mg/mL + 1.0 mg/mL dGLA
[13] = compound at 0.6 mg/mL + 0.01 mg/mL 15-HETrE
[14] = compound at 0.6 mg/mL + 0.05 mg/mL 15-HETrE
[15] = compound at 0.6 mg/mL + 0.05 mg/mL 15-OHEPA
[16] = compound at 0.6 mg/mL + 0.1 mg/mL 15-OHEPA
[17] = compound at 0.6 mg/mL + 0.4 mg/mL dGLA
[18] = compound at 0.6 mg/mL + 1.0 mg/mL dGLA
[19] = compound at 0.7 mg/mL + 0.01 mg/mL 15-HETrE
[20] = compound at 0.7 mg/mL + 0.05 mg/mL 15-HETrE
[21] = compound at 0.7 mg/mL + 0.05 mg/mL 15-OHEPA
[22] = compound at 0.7 mg/mL + 0.1 mg/mL 15-OHEPA
[23] = compound at 0.8 mg/mL + 0.01 mg/mL 15-HETrE
[24] = compound at 0.8 mg/mL + 0.05 mg/mL 15-HETrE
[25] = compound at 0.8 mg/mL + 0.05 mg/mL 15-OHEPA
[26] = compound at 0.8 mg/mL + 0.1 mg/mL 15-OHEPA
[27] = compound at 0.8 mg/mL + 0.4 mg/mL dGLA
[28] = compound at 0.8 mg/mL + 1.0 mg/mL dGLA
[29] = compound at 1.0 mg/mL + 0.4 mg/mL dGLA
[30] = compound at 1.0 mg/mL + 1.0 mg/mL dGLA

Compound: COc1ccc(-c2ccc3cc(C(=O)O)ccc3c2)cc1C12CC3CC(CC(C3)C1)C2 [Adapalene, 6-[3-(1-adamantyl)-4-methoxyphenyl]-2-naphthoic acid]
- Growth Index Avg [1]: +++
- Growth Index Plate 1 [1]: +++
- Growth Index Plate 2 [1]: +++
- Growth Index Plate 3 [1]: +++
- Growth Index Avg [2]: −
- Growth Index Plate 1 [2]: −
- Growth Index Plate 2 [2]: −
- Growth Index Plate 3 [2]: −
- Growth Index Avg [3]: +++
- Growth Index Plate 1 [3]: +++
- Growth Index Plate 2 [3]: +++
- Growth Index Plate 3 [3]: +++
- Growth Index Avg [4]: −
- Growth Index Plate 1 [4]: −
- Growth Index Plate 2 [4]: −
- Growth Index Plate 3 [4]: −
- Growth Index Avg [5]: +++
- Growth Index Plate 1 [5]: +++
- Growth Index Plate 2 [5]: +++
- Growth Index Plate 3 [5]: +++
- Growth Index Avg [6]: +++
- Growth Index Plate 1 [6]: +++
- Growth Index Plate 2 [6]: +++
- Growth Index Plate 3 [6]: +++
- Growth Index Avg [7]: +++
- Growth Index Plate 1 [7]: +++
- Growth Index Plate 2 [7]: +++
- Growth Index Plate 3 [7]: +++
- Growth Index Avg [8]: −
- Growth Index Plate 1 [8]: −
- Growth Index Plate 2 [8]: −
- Growth Index Plate 3 [8]: −
- Growth Index Avg [9]: +++
- Growth Index Plate 1 [9]: +++
- Growth Index Plate 2 [9]: +++
- Growth Index Plate 3 [9]: +++
- Growth Index Avg [10]: −
- Growth Index Plate 1 [10]: −
- Growth Index Plate 2 [10]: −
- Growth Index Plate 3 [10]: −
- Growth Index Avg [11]: +++
- Growth Index Plate 1 [11]: +++
- Growth Index Plate 2 [11]: +++
- Growth Index Plate 3 [11]: +++
- Growth Index Avg [12]: +++
- Growth Index Plate 1 [12]: +++
- Growth Index Plate 2 [12]: +++
- Growth Index Plate 3 [12]: +++
- Growth Index Avg [13]: ++
- Growth Index Plate 1 [13]: ++
- Growth Index Plate 2 [13]: ++
- Growth Index Plate 3 [13]: ++
- Growth Index Avg [14]: −
- Growth Index Plate 1 [14]: −
- Growth Index Plate 2 [14]: −
- Growth Index Plate 3 [14]: −
- Growth Index Avg [15]: +++
- Growth Index Plate 1 [15]: ++
- Growth Index Plate 2 [15]: +++
- Growth Index Plate 3 [15]: +++
- Growth Index Avg [16]: −
- Growth Index Plate 1 [16]: −
- Growth Index Plate 2 [16]: −
- Growth Index Plate 3 [16]: −
- Growth Index Avg [17]: +++
- Growth Index Plate 1 [17]: +++
- Growth Index Plate 2 [17]: +++
- Growth Index Plate 3 [17]: +++
- Growth Index Avg [18]: +++
- Growth Index Plate 1 [18]: +++
- Growth Index Plate 2 [18]: +++
- Growth Index Plate 3 [18]: +++
- Growth Index Avg [19]: +
- Growth Index Plate 1 [19]: +
- Growth Index Plate 2 [19]: +
- Growth Index Plate 3 [19]: +
- Growth Index Avg [20]: −
- Growth Index Plate 1 [20]: −
- Growth Index Plate 2 [20]: −
- Growth Index Plate 3 [20]: −
- Growth Index Avg [21]: ++
- Growth Index Plate 1 [21]: ++
- Growth Index Plate 2 [21]: ++
- Growth Index Plate 3 [21]: ++
- Growth Index Avg [22]: −
- Growth Index Plate 1 [22]: −
- Growth Index Plate 2 [22]: −
- Growth Index Plate 3 [22]: −
- Growth Index Avg [23]: −
- Growth Index Plate 1 [23]: +
- Growth Index Plate 2 [23]: −
- Growth Index Plate 3 [23]: −
- Growth Index Avg [24]: −
- Growth Index Plate 1 [24]: −
- Growth Index Plate 2 [24]: −
- Growth Index Plate 3 [24]: −
- Growth Index Avg [25]: ++
- Growth Index Plate 1 [25]: ++
- Growth Index Plate 2 [25]: ++
- Growth Index Plate 3 [25]: +
- Growth Index Avg [26]: −
- Growth Index Plate 1 [26]: −
- Growth Index Plate 2 [26]: −
- Growth Index Plate 3 [26]: −
- Growth Index Avg [27]: +++
- Growth Index Plate 1 [27]: +++
- Growth Index Plate 2 [27]: +++
- Growth Index Plate 3 [27]: +++
- Growth Index Avg [28]: +++
- Growth Index Plate 1 [28]: +++
- Growth Index Plate 2 [28]: +++
- Growth Index Plate 3 [28]: +++
- Growth Index Avg [29]: +++
- Growth Index Plate 1 [29]: +++
- Growth Index Plate 2 [29]: +++
- Growth Index Plate 3 [29]: +++
- Growth Index Avg [30]: +++
- Growth Index Plate 1 [30]: +++
- Growth Index Plate 2 [30]: +++
- Growth Index Plate 3 [30]: +++
- growth of P. Acnes in combination with 15-OHEPA, compared with 15 OHEPA used alone (in combination with 15-OHEPA): did not reduce the growth
- growth of P. Acnes in combination with DGLA, compared with DGLA used alone (in combination with DGLA): did not reduce the growth
